Results taken from patent US9463192B2, “Trk-inhibiting compound” (ONO PHARMACEUTICAL CO., LTD., priority 2013, dated 2016).

Columns and labels:
human TrkA = human TrkA (Homo sapiens (Human), UniProt P04629); experiment: Measurement of TrkA kinase-inhibiting activity using human TrkA-expressing cells; format: cell-based; conditions: CHO-K1 cells expressing human TrkA and NFAT-bla; NGF 50 ng/ml; TR-FRET reporter
Description: TrkA kinase-inhibiting activity in cell systems was measured using CHO-K1 cells exressing human TrkA and NFAT-bla (CellSenser™ TrkA-NFAT-bla CHO-K1 cells, Invitrogen).
On the day before the assay, CellSenser™ TrkA-NFAT-bla CHO-K1 cells were suspended in an assay medium (Opti-MEM1 Reduced Serum Medium (Invitrogen) containing 0.5% dialysed fetal bovine serum (Invitrogen), 0.1 mM nonessential amino acids (Invitrogen), 1 mM sodium pyruvate (Invitrogen) and antibiotics (100 U/mL penicillin and 100 µg/mL streptomycin (Invitrogen))) and plated at a density of 2.4×10^4 cells/40 μL/well in a 96-well clear bottom plate (Corning, Catalogue No.: 3882). In some wells were added only the assay medium at 40 μL/well (Cell-free). On the day of the assay, 10 mM of the present compound (DMSO solution) was distributed in a 96-well plate (Costar, Catalogue No.: 3363) and serially diluted with DMSO with the geometrical ratio of 3. The serial dilutions were diluted with the assay medium to 100-fold to prepare a solution of the present compound with a 10-fold concentration (DMSO concentration: 1%). To the plate where cells were plated was added the present compound at 5 µL/well and the plate was incubated in a CO2 incubator with 5% CO2, 95% Air at 37° C. for 30 minutes. For a control and a blank, the assay medium containing 1% DMSO was added at 5 µL/well in place of the solution of the present compound. Subsequently the assay medium containing NGF (Mouse 2.5s, Natural, Invitrogen) was added to the plate at 5 µL/well (final concentration of NGF: 50 ng/ml) and the plate was incubated in a CO2 incubator with 5% CO2, 95% Air at 37° C. for 5 hours. For the blank group, the assay medium was added in place of NGF at 5 µL/well. A reporter assay detection reagent ([…]) was added to the plate which was then incubated in the dark at room temperature for 120 minutes. The reporter assay detection reagent was prepared from LiveBLAzer™-FRET B/G Loading Kit (Invitrogen). On the Analyst GT (Molecular Devices Japan, K.K.) the wells were irradiated with excitation light at 405 nm and the fluorescence intensities at 460 nm and 530 nm were measured. The time resolved fluorescence resonance energy transfer (TR-FRET) ratio of each well was calculated according to the following Equation 1: TR-FRET ratio=(A460x−A460F)/(A530x−A530F) [Eq. 1]
A460x: the fluorescence intensity at 460 nm of the present compound, control or blank;
A460F: the fluorescence intensity at 460 nm of the Cell-free;
A530x: the fluorescence intensity at 530 nm of the present compound, control or blank; and
A530x: the fluorescence intensity at 530 nm of the Cell-free.
The TR-FRET inhibition rate (%) of the present compound was calculated according to the following Equation 2: Inhibition rate (%)={1−(AX−AB)/(AC−AB)}×100 [Eq. 2]
wherein AX: the TR-FRET ratio when the present compound is added;
AB: the TR-FRET of the blank; and
AC: the TR-FRET of the control.
The IC50 value by the present compound was calculated from the inhibition curve based on the inhibition rate of the present compound at respective concentrations.

[1] = tested on: NGF-induced vascular hyper permeability; experiment: Inhibition of rat NGF-induced vascular hyper permeability; format: in vivo; conditions: po, 1 mg/kg orally, 14 h after administration, read-out: Inhibition rate of vascular hyper permeability (%) (time after administration (h))
Description: TrkA-inhibiting activity of the present compound was evaluted in vivo. The present compound dissolved in a medium was orally administered (adminstered volume: 5 mL/kg) to male CD(SD)IGS rats (7- to 9-week old, Charles River laboratories Japan, Inc.) shaved on the back. A medium was orally administered (adminstered volume: 5 mL/kg) to the control and normal groups. After 6, 12 or 14 hours of administration, 3 μg/mL of a NGF (Mouse 2.5s, Natural, Invitrogen) solution prepared in 0.1% BSA (Sigma-Aldrich)-containing saline was intracutaneously administered (dose; 50 μL/site) at 3 sites on the back of animals under halothane anesthesia. For the normal group, 0.1% BSA-containing saline was intracutaneously administered (dose; […]) at 3 sites on the back. Immediately after intracutaneous administration, 1% Evans Blue (Tokyo Chemical Industriy Co., Ltd.) was administered intravenously from tail (adminstered volume: 3 mL/kg). After 10 minutes of administration, the animals were sacrificed by bleeding due to incision of the abdominal aorta. The sites of intracutaneous administration on the back (3 sites) were excised and the skin samples were respectively transferred to the wells in a 48-well plate (Asahi Glass Co., Ltd.). Formamide (0.8 mL/well) was added to the plate and the plate was sealed and incubated overnight at 60° C. The formamide extraction solution (200 μL) was transferred to a 96-well plate and the absorbance (wavelength: 620 nm) of Evans Blue extracted in formamide was measured on an absorbance microplate reader (SpectraMAX 190, Molecular Devices Japan, K.K.). Standard samples of Evans Blue dissolved in formamide (0, 0.78, 1.56, 3.13, 6.25, 12.5, 25 and 50 µg/mL) were measured at the same time for the absorance (wavelength: 620 nm) to generate a calibration curve. Based on the calibration curve and the absorbances of samples, the concentrations of Evans Blue in the sample was calculated. The concentrations of Evans Blue for three skin samples collected from one aminal were averaged to obtain the vale for the animal. The rate of inhibition for rat NGF-induced vascular hyper permeability of the present compound was calculated according to the following Equation: Inhibition rate (%)={1−(AX−AN)/(AC−AN)}×100 [Eq. 3]
wherein AX: the concentration of Evans Blue of the test compound (an average value of 3 samples from one animal);
AN: the concentration of Evans Blue of the normal group (an average value of 3 samples from one animal);
AC: the concentration of Evans Blue of the control group (an average value of 3 samples from one animal).

[2] = tested on: sodium monoiodoacetate-induced model rats; experiment: Analgesic effect on sodium monoiodoacetate-induced model rats; format: in vivo, rat

Sequence of human TrkA (P04629 33-796): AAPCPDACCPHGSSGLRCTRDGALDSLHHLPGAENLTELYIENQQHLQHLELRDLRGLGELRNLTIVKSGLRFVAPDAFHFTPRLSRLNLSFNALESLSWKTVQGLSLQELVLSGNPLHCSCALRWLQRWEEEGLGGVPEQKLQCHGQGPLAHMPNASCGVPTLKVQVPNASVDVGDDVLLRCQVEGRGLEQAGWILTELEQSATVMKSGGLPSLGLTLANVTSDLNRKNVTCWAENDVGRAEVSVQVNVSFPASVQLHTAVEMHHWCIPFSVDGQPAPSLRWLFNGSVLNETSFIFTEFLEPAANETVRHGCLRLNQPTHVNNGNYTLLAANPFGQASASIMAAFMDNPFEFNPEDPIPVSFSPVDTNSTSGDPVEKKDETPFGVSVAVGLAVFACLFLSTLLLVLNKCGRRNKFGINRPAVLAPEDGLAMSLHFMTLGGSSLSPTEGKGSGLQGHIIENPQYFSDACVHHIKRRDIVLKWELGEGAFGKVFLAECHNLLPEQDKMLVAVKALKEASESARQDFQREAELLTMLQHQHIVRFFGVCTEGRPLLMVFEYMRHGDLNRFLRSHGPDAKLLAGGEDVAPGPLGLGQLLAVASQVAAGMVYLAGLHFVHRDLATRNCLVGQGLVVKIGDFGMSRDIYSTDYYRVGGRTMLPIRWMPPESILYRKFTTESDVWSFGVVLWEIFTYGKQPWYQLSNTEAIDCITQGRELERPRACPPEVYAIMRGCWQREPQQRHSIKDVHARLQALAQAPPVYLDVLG

| SMILES | IC50 (human TrkA) [µM] | inhibition in vivo at 1 mg/kg [1] [%] | inhibition in vivo at 3 mg/kg ([2]; Rattus norvegicus, sc, 1 h, read-out: Percent improvement (%)) [%] | Percent improvement (%) ([2]; MIA-induced model rats, day 24, tramadol 10 mg/kg subcutaneously 1 hour before measurement) |
| --- | --- | --- | --- | --- |
| CN(C)c1ccn2ncc(-c3ccc(Oc4ncc(NC(=O)Nc5cc(C(F)(F)F)ccc5-c5ccnn5C)cn4)cc3)c2n1 [Example 21-51, 1-(2-{4-[5-(dimethylamino)pyrazolo[1,5-a]pyrimidin-3-yl]phenoxy}-5-pyrimidinyl)-3-[2-(1-methyl-1H-pyrazol-5-yl)-5-(trifluoromethyl)phenyl]urea] | 0.001 | 95 |  |  |
| Cc1ccn2ncc(-c3ccc(Oc4ncc(NC(=O)Nc5cc(C(F)(F)F)ccc5-c5cccnc5)cn4)cc3)c2n1 [Example 21-65, 1-{2-[4-(5-methylpyrazolo[1,5-a]pyrimidin-3-yl)phenoxy]-5-pyrimidinyl}-3-[2-(3-pyridinyl)-5-(trifluoromethyl)phenyl]urea] | 0.0007 | 92 |  |  |
| CCNc1ccn2ncc(-c3ccc(Oc4ncc(NC(=O)Nc5cc(C(F)(F)F)ccc5-c5cccc(C)c5)cn4)cc3)c2n1 [Example 21-67, 1-(2-{4-[5-(ethylamino)pyrazolo[1,5-a]pyrimidin-3-yl]phenoxy}-5-pyrimidinyl)-3-[3′-methyl-4-(trifluoromethyl)-2-biphenylyl]urea] | 0.004 | 90 |  |  |
| CN(C)c1ccn2ncc(-c3ccc(Oc4ncc(NC(=O)Nc5cc(C(F)(F)F)ccc5-c5ccccc5)cn4)cc3)c2n1 [Example 21-70, 1-(2-{4-[5-(dimethylamino)pyrazolo[1,5-a]pyrimidin-3-yl]phenoxy}-5-pyrimidinyl)-3-[4-(trifluoromethyl)-2-biphenylyl]urea] | 0.002 | 100 |  |  |
| Cc1cccc(-c2ccc(C(F)(F)F)cc2NC(=O)Nc2cnc(Oc3ccc(-c4cnn5ccc(N(C)C)nc45)cc3)nc2)c1 [Example 21-73, 1-(2-{4-[5-(dimethylamino)pyrazolo[1,5-a]pyrimidin-3-yl]phenoxy}-5-pyrimidinyl)-3-[3′-methyl-4-(trifluoromethyl)-2-biphenylyl]urea] | 0.003 | 92 |  |  |
| Cc1ccccc1-c1ccc(C(F)(F)F)cc1NC(=O)Nc1cnc(Oc2ccc(-c3cnn4ccc(N(C)C)nc34)cc2)nc1 [Example 21-75, 1-(2-{4-[5-(dimethylamino)pyrazolo[1,5-a]pyrimidin-3-yl]phenoxy}-5-pyrimidinyl)-3-[2′-methyl-4-(trifluoromethyl)-2-biphenylyl]urea] | 0.004 | 100 |  |  |
| COc1ccc2ncc(-c3ccc(Oc4ncc(NC(=O)Nc5cc(C(F)(F)F)ccc5-c5cccnc5)cn4)cc3)n2n1 [Example 22-8, 1-(2-(4-(6-methoxyimidazo[1,2-b]pyridazin-3-yl)phenoxy)pyrimidin-5-yl)-3-(2-(pyridin-3-yl)-5-(trifluoromethyl)phenyl)urea] | 0.001 | 100 |  |  |
| COc1ccc2ncc(-c3ccc(Oc4ncc(NC(=O)Nc5cc(C(F)(F)F)ccc5-n5cccn5)cn4)cc3)n2n1 [Example 22-9, 1-(2-(1H-pyrazol-1-yl)-5-(trifluoromethyl)phenyl)-3-(2-(4-(6-methoxyimidazo[1,2-b]pyridazin-3-yl)phenoxy)pyrimidin-5-yl)urea] | 0.001 | 100 |  |  |
| CCOc1ccc2ncc(-c3ccc(Oc4ncc(NC(=O)Nc5cc(C(F)(F)F)ccc5-c5cccnc5)cn4)cc3)n2n1 [Example 22-34, 1-{2-[4-(6-ethoxyimidazo[1,2-b]pyridazin-3-yl)phenoxy]-5-pyrimidinyl}-3-[2-(3-pyridinyl)-5-(trifluoromethyl)phenyl]urea] | 0.001 | 91 |  |  |
| CN1CC[C@]23c4c5ccc(O)c4O[C@H]2[C@@H](O)C=C[C@H]3[C@H]1C5 [Morphine] |  |  | 54 |  |
| COc1cccc(C2(O)CCCCC2CN(C)C)c1 (centres unmarked) [Tramadol] |  |  |  | 43 |
